Earlier results in US20070293698A1, “Compositions of Allosteric Hemoglobin Modifiers and Methods of Making the Same” (ALLOS THERAPEUTICS, INC., priority 2004, published 2007).

Columns and labels:
[1] = tested on: EMT6 mouse mammary tumors; settings: efaproxiral plus oxygen breathing, Rockwell and Kelley 1998
[2] = tested on: Lewis lung carcinoma; settings: mice bearing the Lewis lung carcinoma; Teicher 1996
[3] = tested on: mouse fibrosarcoma tumor; settings: combination of efaproxiral and radiation relative to radiation alone; Teicher 1996, Khandelwal 1996
[4] = molecular target: hemoglobin (Homo sapiens, UniProt P68871+P69905); settings: in vivo
hemoglobin, sequence (P69905 2-142 limits assumed): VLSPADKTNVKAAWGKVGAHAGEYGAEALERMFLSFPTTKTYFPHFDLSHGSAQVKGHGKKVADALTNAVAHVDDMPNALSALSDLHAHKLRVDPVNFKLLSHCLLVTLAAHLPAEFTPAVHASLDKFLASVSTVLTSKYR
hemoglobin, sequence (P68871 2-147 limits assumed): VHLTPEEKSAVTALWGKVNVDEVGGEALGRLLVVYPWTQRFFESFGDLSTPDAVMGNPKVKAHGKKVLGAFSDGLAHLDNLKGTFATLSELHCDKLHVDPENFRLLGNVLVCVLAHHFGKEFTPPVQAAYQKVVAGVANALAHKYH

tissue oxygenation [4]: enhance tissue oxygenation in vivo
Structure (SMILES): Cc1cc(C)cc(NC(=O)Cc2ccc(OC(C)(C)C(=O)O)cc2)c1 [efaproxiral, 2-[4-((((3,5-dimethylphenyl)amino)carbonyl)methyl)phenoxy]-2-methyl propionic acid]
effect of radiation in tumors ([1]; EMT6 tumors): Enhancement of the effect of radiation was observed | radiation effects in normal tissues ([1]; normal tissues): absence of enhanced radiation effects in normal tissues | effect on fractionated radiation therapy [2]: enhance fractionated radiation therapy | tumor growth [3]: tumor growth has been shown to be reduced
